Non-standard residues stand in square brackets, D forms with d. Residues, ends and D or L forms follow the SMILES beside them. ξ: configuration not given here. dThr(3ξ) = CC(O)[C@@H](N)C(=O)O
Tests used:
Assay type in all cases: in vivo, mice
[1] = tested on: IL-1β, IL-6, IL-8 and PGF2α in amniotic fluid; experiment: ELISA of pro-inflammatory mediators in amniotic fluid 24 h after IL-1β injection; settings: for levels of all pro-inflammatory mediators (IL-1β, IL-6, IL-8, PGF2α) in amniotic fluid: relative to vehicle
Experimental: FIGS. 2A to 2D show the levels of the pro-inflammatory mediators IL-1β (FIG. 2A), IL-6 (FIG. 2B), IL-8 (FIG. 2C) and PGF2a (FIG. 2D) in the amniotic fluid (AF) collected 24 h after IL-1β injection and treatment with vehicle, Compound 1 or Kineret, as assessed by ELISA. One-way ANOVA compared to IL-1β+Veh. **p<0.01, ***p<0.001. STATS: n=4; 4 gestational sacs from 2 animals in each groups.
Intrauterine […] perinatal inflammation model. Timed-pregnant CD-1 mice at 16.5 days of gestation were steadily anesthetized with an isoflurane mask. After body hair removal from the peritoneal area, a 1.5 cm-tall median incision was performed with surgical scissors in the lower abdominal wall. The lower segment of the right uterine horn was then exposed and 1 μg of IL-1β was injected between two fetal membranes with care of not entering the amniotic cavity. The abdominal muscle layer was sutured and the skin closed with clips. One hundred μL of Compound 1 (1 mg/Kg/12 h), Kineret® (4 mg/Kg/12 h) or vehicle (sterile water) was injected subcutaneously in the neck 30 minutes before stimulation with IL-1β (to allow distribution of drugs to target tissues). Mice delivery was assessed every hour until term (G19-G19.5). Immediately after delivery, neonatal survival was assessed. Some pregnant mice were sacrificed before birth (24 h after the surgery) to either 1) perform caesarean section and photograph fetuses; 2) collect amniotic fluids; and 3) collect placentas. Only tissues and fluids from gestational sacs closer to the cervical end of the uterus were collected to ensure proximity with the IL-1β injection site. Tissues and fluids were snap-frozen in liquid nitrogen and kept at −80° C. for subsequent RNA purification or protein quantification by ELISA.
Murine ELISA assays. […] The enzymatic reaction was stopped after 30 minutes and the plate was read at 450 nm, with wavelength correction set to 570 nm.

[2] = tested on: IL-1β, IL-6, IL-8 and PGF2α in neonatal lungs; experiment: ELISA of pro-inflammatory mediators in lungs of neonates; settings: neonates from IL-1β-treated dams; tissue collected at birth
Experimental: FIGS. 3A to 3D show the levels of the pro-inflammatory mediators IL-1p (FIG. 3A), IL-6 (FIG. 3B), IL-8 (FIG. 3C) and PGF2a (FIG. 3D) in the lungs of neonates from sham and IL-1β-treated dams administered with vehicle, Compound 1 or Kineret, as assessed by ELISA. One-way ANOVA compared to IL-1β+Veh. *p<0.05, **p<0.01. n=4 pups in each groups.
(§1) Murine ELISA assays. The ELISA assay was performed using mouse Quantikine™ ELISA kits against IL-1β or IL-6 (R&D Systems®; #MLBOOC, M6000B), IL-8 and PGF2α (MyBioSource®; #MBS261967, #MBS264160) according to the manufacturer's instructions. Briefly, tissues (lungs, intestines and brains) collected at birth were homogenized in RIPA buffer containing proteases and 50 μL of either lung, intestine, or brain samples, recombinant mouse IL-1β, IL-6, IL-8 or PGF2α positive control or decreasing concentrations of a recombinant mouse IL-1β, IL-6, IL-8 or PGF2α standard were loaded into a 96-well plate pre-coated with a monoclonal anti-mouse IL-1β antibody and incubated for 2 hours at ambient temperature. Wells were washed 5 times and incubated with an enzyme-linked mouse polyclonal antibody specific to murine IL-1β for 2 hours. After another washing step, a substrate solution was added. The enzymatic reaction was stopped after 30 minutes and the plate was read at 450 nm, with wavelength correction set to 570 nm.

[3] = tested on: IL-1β, IL-6, IL-8 and PGF2α in neonatal intestines; experiment: ELISA of pro-inflammatory mediators in intestines of neonates; settings: neonates from IL-1β-treated dams; for levels of gut IL-6: relative to control
Experimental: FIGS. 5A to 5D show the levels of the pro-inflammatory mediators IL-1p (FIG. 5A), IL-6 (FIG. 5B), IL-8 (FIG. 5C) and PGF2a (FIG. 5D) in the intestines of neonates from sham and IL-1β-treated dams administered with vehicle, Compound 1 or Kineret, as assessed by ELISA. One-way ANOVA compared to IL-1β+Veh. *p<0.05. n=4 pups in each groups.
as §1

[4] = tested on: IL-1β, IL-6, IL-8 and PGF2α in fetal brain tissue; experiment: ELISA of pro-inflammatory mediators in brain of neonates; settings: neonates from IL-1β-treated dams
Experimental: FIGS. 8A to 8D show the levels of the pro-inflammatory mediators IL-1β (FIG. 8A), IL-6 (FIG. 8B), IL-8 (FIG. 8C) and PGF2a (FIG. 8D) in fetal brain tissue of neonates from sham and IL-1β-treated dams administered with vehicle, Compound 1 or Kineret, as assessed by ELISA. One-way ANOVA compared to IL-1β+Veh. *p<0.05, **p<0.01, ***p<0.001. n=4 pups in each groups.
as §1

Row | Compound | levels of all pro-inflammatory mediators (IL-1β, IL-6, IL-8, PGF2α) in amniotic fluid [1] | levels of all cytokines tested (IL-1β, IL-6, IL-8, PGF2α) in neonatal lungs [2] | increased IL-1β and IL-8 in neonatal intestines [3] | levels of gut IL-6 [3] | increased IL-1β and IL-6 levels in the brain [4] | increased IL-8 levels in the brain [4] | IL-8 levels in amniotic fluid, extent of effect ([1]; compared with compound 1)
1 | CC(C)C[C@@H](NC(=O)[C@@H](CCC(=O)O)NC(=O)[C@H](NC(=O)[C@H](NC(=O)[C@@H](Cc1ccc(O)cc1)NC(=O)[C@H](N)CCCNC(=N)N)C(C)O)C(C)C)C(=O)N[C@H](C)C(N)=O (stereo partly drawn) [compound 1] (H-[dR][dY][dThr(3ξ)][dV][dE][dL][dA]-NH2) | significant reduction | significant reduction | alleviated this effect | clear trend toward decreased levels | alleviated this effect | alleviated this effect | 
2 | Kineret: recombinant form of the human interleukin-1 receptor antagonist (IL-1Ra), purchased from Swedish Orphan Biovitrum AB | only had a significant effect on IL-8 levels | only effective at significantly decreasing lung IL-1β levels |  | not observed | ineffective at significantly reducing | although significant, was weaker than that obtained with compound 1 | at a lower extent relative to compound 1

— patent US20210322509A1, “Methods for Reducing Perinatal Morbidity and / or Mortality” (CHU SAINTE-JUSTINE, priority 2016, published 2021)
